Assay results as given in US20090298797A1, “COMBINATION THERAPY FOR THE TREATMENT OF INFLUENZA” (priority 2008, published 2009).
“And” between values parts separate entries of the source, which are not always exact repeats. Equal entries are not always repeated.

Key:
[1] = system: influenza A virus strain A/Vietnam/1194/04 (H5N1); design: species or system BALB/c mice; details: mouse, in vivo
influenza A/H2N2 virus = details: mouse, in vivo; cited from earlier work
[2] = system: influenza A virus strain A/Vietnam/1194/04 (H5N1); design: species or system BALB/c mice; details: mouse, in vivo; remark: listed apart in the source
[3] = system: IL-1, IL-6, IFN-γ, TNF-α, MIP-1, PGE2, leukotriene; assay: ELISA of pro-inflammatory cytokines, chemokines, PGE2 and leukotriene in tracheal-pulmonary lavage; assay type: in vivo, BALB/c mice

## Cc1ccc(C)c(OCCCC(C)(C)C(=O)O)c1 [gemfibrozil]
[1]
  mean survival time: about 7.5 days
  survival: no significant improvement
Influenza A/H2N2 virus
  survival of mice infected by influenza A/H2N2 virus: 52%

## Nc1ccc(O)c(C(=O)O)c1 [mesalazine, 5-aminosalicylic acid]
[1]
  mean survival time: about 8.5 days

## Cc1ccc(-c2cc(C(F)(F)F)nn2-c2ccc(S(N)(=O)=O)cc2)cc1 [celecoxib]
[1]
  mean survival time: about 8.5 days

## CC(=O)N[C@H]1[C@H]([C@H](O)[C@H](O)CO)OC(C(=O)O)=C[C@@H]1N=C(N)N [zanamivir]
[1]
  mean survival time: 10.7 ± 1.6 days and 8.4 days
  survival: All mice survived
  survival rate: 13.3%
[2]
  TCID50 titer in the tracheal-pulmonary lavage: below our detectable limit
[3]; compared with triple therapy (P<0.01 or 0.05) or uninfected normal mice
  levels of inflammatory markers IL-6, IFN-γ, TNF-α, MIP-1 and leukotriene in tracheal-pulmonary lavage: significantly higher
[3]; zanamivir alone and controls vs triple therapy, P>0.05
  IL-1 levels in tracheal-pulmonary lavage: only slightly lower
